Results from ChEMBL document CHEMBL1152426, “Synthetic strategies toward carbocyclic purine-pyrimidine hybrid nucleosides” (Bioorg Med Chem, 2009).
Activity calls are given as the source filed them. No cut-off for these calls is given here.

What was measured:
[1] = Inhibition of S-adenosylhomocystein hydrolase in presence of 10 uM of S-adenosylhomocystein
[2] = Inhibition of DNA methyltransferase
[3] = Inhibition of S-adenosylhomocystein hydrolase at 45 uM in presence of S-adenosylhomocystein
[4] = Inhibition of S-adenosylhomocystein hydrolase

Compound	Activity [1]	Activity [2]	Activity [3]	Ki [4] [µM]	Activity [4]
O=c1[nH]c(=O)n([C@@H]2CC[C@@H](O)[C@H]2O)c2nc[nH]c12	Active	inactive	Active	5	–
O=c1[nH]c(=O)n([C@@H]2CC[C@@H](O)[C@H]2O)c2ncsc12	–	inactive	–	–	inactive
